Target: T1, human Kir2.1 (Homo sapiens, UniProt P63252)
T1 construct: gene KCNJ2; tags kept
T1 sequence (P63252 1-427): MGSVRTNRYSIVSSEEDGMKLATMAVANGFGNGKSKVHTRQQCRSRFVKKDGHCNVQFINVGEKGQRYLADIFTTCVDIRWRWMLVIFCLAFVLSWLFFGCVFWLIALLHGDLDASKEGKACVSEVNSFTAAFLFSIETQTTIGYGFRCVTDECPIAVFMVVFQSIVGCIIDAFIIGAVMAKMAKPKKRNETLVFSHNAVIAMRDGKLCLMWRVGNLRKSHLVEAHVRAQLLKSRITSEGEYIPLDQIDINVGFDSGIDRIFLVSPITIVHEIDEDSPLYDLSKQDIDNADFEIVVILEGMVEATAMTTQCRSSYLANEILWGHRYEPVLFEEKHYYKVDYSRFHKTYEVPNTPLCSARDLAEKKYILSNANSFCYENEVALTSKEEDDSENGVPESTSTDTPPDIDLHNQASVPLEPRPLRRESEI
Test: […]+ uptake into proteoliposomes
Assay type: biochemical

% reduction of channel activity: ~ 45%
Compound: CC(C)CCC[C@@H](C)[C@H]1CC[C@H]2[C@@H]3CC=C4C[C@@H](O)CC[C@]4(C)[C@H]3CC[C@]12C [cholesterol]

From article PMC3084843 (PLoS ONE, 2011)
